The target of test [1] is T1, GPCR HM74A (niacin receptor) (Homo sapiens, UniProt Q8TDS4).
T1 construct: expressed in transfected cells; host or cells: HEK293
Briefly: FLIPR in vitro functional assay, intracellular Ca2+ in recombinant HEK293 cells expressing HM74A and Gα6qi4myr. Type of test: cell-based. The conditions noted are these: 100% = 1 μM niacin. Here is the method: Function-testing assays were carried out by means of the FLIPR technique (“Fluorescence Imaging Plate Reader”, Molecular Devices Corp.). For this purpose, agonist-induced changes in the intracellular concentration of Ca^2+ in recombinant HEK293 cells which express both the GPCR HM74A (niacin receptor) and the hybrid G-protein Gα6qi4myr (see, for example, DE patent application 10033353) were determined.
For the investigations, cells were seeded into 96-well microtiter plates (60 000 cells/well) and allowed to grow overnight. The medium was removed and the cells were incubated in buffer which contained the fluorescent dye Fluo-4. After this loading with dye, the cells were washed, test substance was added, and changes in the intracellular Ca^2+ concentration were measured in the FLIPR apparatus. Results have been shown as percentage change relative to the control (0%: no test substance added; 100%:1 μM reference agonist niacin added), used to calculate dose/activity plots and EC50 values determined.

Another test deals with lipolysis. Briefly: Inhibition of lipolysis in the whole animal after p.o. administration (FFA, glycerol, triglycerides in blood). Conditions: 3 mg/kg po. Type of test: in vivo, Wistar rats. Here is the method: The effect was tested on the whole animal (mouse, rat, hamster or dog), after a fasting period (e.g. of about 16 hours the substance is administered (e.g. p.o., iv., i.p., s.c.) and, with or without additional stimulation of endogenous lipolysis (e.g. by a bolus injection of 2 mg/kg i.p. isoprenaline), the effect of the test substance on lipolysis is determined on the basis of the liberated free fatty acids (FFA), glycerol and triglycerides by obtaining a blood sample (e.g. by retroorbital blood sampling) e.g. 15 min, 30, 60, 120 etc minutes after p.o. administration, and analyzing by standard methods of clinical chemistry (e.g. L. Thomas: Labor and Diagnose, 2nd edition, Medizinische Verlagsgesellschaft, Marburg/L. 1984; ISBN 3-921320-10-9)). The inhibition of lipolysis by the inhibitors is analyzed by comparing with the rate of lipolysis in correspondingly treated control animals.

pEC50: −log10 of the molar value.

T1 sequence (Q8TDS4 whole entry): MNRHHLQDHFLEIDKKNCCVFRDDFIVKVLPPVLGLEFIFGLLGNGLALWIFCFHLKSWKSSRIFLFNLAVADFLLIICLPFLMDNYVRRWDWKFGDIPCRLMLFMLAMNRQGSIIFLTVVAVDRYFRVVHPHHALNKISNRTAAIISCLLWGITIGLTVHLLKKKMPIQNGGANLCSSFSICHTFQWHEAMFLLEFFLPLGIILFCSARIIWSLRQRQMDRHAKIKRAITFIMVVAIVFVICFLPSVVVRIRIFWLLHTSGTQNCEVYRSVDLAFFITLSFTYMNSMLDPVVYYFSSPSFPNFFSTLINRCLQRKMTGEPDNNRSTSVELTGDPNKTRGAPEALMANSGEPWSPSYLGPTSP

`O=C(O)c1cc(=O)cco1` [Example 1]: the negative-log EC50 (pEC50) in test [1] was 7.05. The “lipolysis (reduction in FFA, glycerol and triglycerides)” value with lipolysis is on record as “distinctly reduced”. In addition, the FFA stood at 0.22 mmol/L in the test with lipolysis (15 min, Wistar rats); 0.14 mmol/L in the test on lipolysis (30 min, Wistar rats); 0.16 mmol/L in the test with lipolysis (60 min, Wistar rats); 0.28 mmol/L in the test with lipolysis (120 min, Wistar rats); 0.55 mmol/L in the test with lipolysis (time 0, Wistar rats). In addition, the Glycerol with lipolysis (15 min, Wistar rats) turned out to be 55 µmol/L; in the test on lipolysis (30 min, Wistar rats), 43 µmol/L; in the test with lipolysis (60 min, Wistar rats) it was 43 µmol/L; with lipolysis (120 min, Wistar rats), 74 µmol/L; with lipolysis (time 0, Wistar rats), 117 µmol/L. The Triglycerides turned out to be 0.48 mmol/L with lipolysis (15 min, Wistar rats); 0.28 mmol/L in the test on lipolysis (30 min, Wistar rats); 0.21 mmol/L in the test on lipolysis (60 min, Wistar rats); 0.25 mmol/L in the test with lipolysis (120 min, Wistar rats); 0.53 mmol/L with lipolysis (time 0, Wistar rats).

The record behind these values is US8748483B2, “Use of substituted pyranone acid derivatives for the treatment of metabolic syndrome” (SANOFI, priority 2007, dated 2014).
